Measurements from patent publication US20180228778A1, “COMPOSITIONS COMPRISING S1P RECEPTOR MODULATORS” (Akaal Pharma Pty Ltd, priority 2015, published 2018).

How the values were obtained:
[1] = system: LPS challenged macrophages (RAW cells); assay: Inhibition of pro-inflammatory cytokines and factors in LPS challenged macrophages (RAW cells); assay type: cell-based; conditions: in-vitro, 1 to 5 μM
Description: The pro-inflammatory cytokines and factors are over expressed in inflammations, cancer and other indications. Lipopolysaccharide is well known to induce various pro-inflammatory factors in the monocytes (RAW cells) and the efficacy of compound on the LPS challenged cells was evaluated for the inhibition of tumor necrosis factor (TNFα), interleukins; IL1P, IL6, and factors such as inducible nitroxide synthase (iNOS), COX-2 and vascular endothelial growth factor (VEGF).

[2] = system: DNFB-induced delayed type hypersensitivity (DTH) in BALB/c mice; assay: Dinitroflurobenzene (DNFB)-induced delayed type hypersensitivity (DTH) in BALB/c mice; assay type: in vivo; conditions: oral, twice daily 3 mg/Kg
From the text: The formulation of representative compound of formula I have shown efficacy in a delayed-type hypersensitivity (DTH) reaction model. The DTH is an expression of cell-mediated immunity and plays a major role in the pathology and chronicity of many inflammatory disorders including inflammatory skin indications. One of the most characteristic DTH phenomena is contact hypersensitivity, which is characterized by swelling and increased tissue levels of cytokines. Contact hypersensitivity (CHS) is a T cell mediated immune reaction in response to cutaneous sensitization and challenge with reactive haptens those are capable of binding directly to soluble and cell associated proteins and recognized by T cells in the context of self-MHC products. The cells that recognize antigen-protein complex in the skin are the Langerhans cells (LCs). After topical application of an allergen, Langerhans cells (LCs), the major antigen-presenting cells (APCs) for the induction of immune responses in skin, show enhanced expression of surface MHC class II molecules, and start to emigrate from the skin to regional lymph nodes where specific lymphocyte activation is thought to occur. After a second contact with the haptens, T cells are first recruited into tissues and then activated by antigen-presenting cells to produce cytokines that mediate local inflammation. Myeloperoxidase (MPO) is an enzyme exclusively present in neutrophils granules, which is commonly used as an index of granulocyte infiltration.
The effect of AKP (a compound of formula (I)) as an oral treatment was evaluated in dinitroflurobenzene (DNFB)-induced delayed type hypersensitivity (DTH) in BALB/c mice. A total of 18 female BALB/c mice were randomly assigned to 2 groups, Group 1: DTH treated with the vehicle of AKP (N=9); Group 2: DTH treated with AKP-11 twice daily dose of 3 mg/Kg (N=9). […] Ear thickness was measured with a micrometer before challenge and 24 h after challenge. Ear weight was measured 24 h after challenge. […]

[3] = system: Phorbol ester mediated irritant contact dermatitis in Swiss albino mice; assay: Phorbol ester mediated irritant model of contact dermatitis; assay type: in vivo; conditions: for reduction of ear swelling (inflammation): alone or in combination (Figure 3)
Description: The local application of Phorbol ester stimulates protein Kinase C (PKC), COX, LOX activity, formation of free radicals including the synthesis of mediators that regulate the production of TNF-α. The whole process mediates inflammation and hyperplasia as observed in inflammatory skin diseases such as psoriasis, eczema and others.
The topical efficacy of AKP (a compound of formula (I)) was determined in the Phorbol ester mediated irritant model of contact dermatitis. The 24 animals (Swiss albino mice) were divided in four groups (G1-4) of 6 each; G1 (control and vehicle treated), G2 (PMA challenged and vehicle treated), G3 (PMA challenged and clobetasol treated) and G4 (PMA challenged and AKP treated). The topical application of AKP (3% formulation; or as a DMSO solution) shown significant inhibition of ear inflammation (>40%; p<0.05). […] The combination reduced ear swelling (inflammation) by 43% (p[…]0.001) as shown in Figure-3 (Topical efficacy of AKP, betamethasone or combination in mice model of Phorbol ester mediated irritant contact dermatitis).

[4] = system: mild to moderate psoriasis; assay: Phase I clinical study of topical use in healthy volunteers and psoriasis patients; assay type: in vivo, human; conditions: daily for 28 days
Description: In a clinical study healthy volunteers and psoriasis patients with mild to moderate psoriasis were treated daily for 28 days.
The local psoriasis severity index (LPSI) was measured and recorded significant efficacy (>40%; p=0.0016; Figure-4). FIG. 4 illustrates the clinical effect of AKP.

CCCOc1ccc(-c2nc(-c3ccc4oc(C(N)(CO)CO)cc4c3)no2)cc1Cl [AKP] was tested, and the “inhibition of pro-inflammatory cytokines and factors (TNFα, IL1P, IL6, iNOS, COX-2, VEGF)” value [1] was “markedly inhibited”, the ear thickness ([2]; 24 h after DNFB challenge) was “significantly reduced” and the ear weight ([2]; 24 h after DNFB challenge) was “significantly reduced”. For the same compound, the “tissue MPO activity (right ear)” value ([2]; at sacrifice) was “significantly reduced”, the “count of lymphocytes in the blood” value ([3]; topical application) was “did not alter” and the “inhibition of ear inflammation” value ([3]; topical, 3% formulation or DMSO solution, PMA challenged, p<0.05) was greater than 40%. For the same compound, the “reduction of ear swelling (inflammation)” value ([3]; topical) was 30%, the “AKP in blood (systemic exposure)” value [4] was “not evident in blood” and the serious adverse events [4] was “no serious adverse event”. The “local psoriasis severity index (LPSI) efficacy” value ([4]; p=0.0016, Figure 4) was greater than 40%.

With C[C@H]1C[C@H]2[C@@H]3CCC4=CC(=O)C=C[C@]4(C)[C@@]3(F)[C@@H](O)C[C@]2(C)[C@@]1(O)C(=O)CO [betamethasone, reference compound] the “reduction of ear swelling (inflammation)” value ([3]; topical) was 30%.
